The values that follow come from patent US20230339896A1, “HPK1 INHIBITORS AND USES THEREOF” (QILU REGOR THERAPEUTICS INC., priority 2020, published 2023).

One may read the EC50 as the concentration at which the effect is half-maximal. For orientation: IC50 means the concentration needed to halve the response being measured.

For one experiment, the system named is Human Pan T cells. In words: IL2 & IFN-γ released by human pan T cell (ELISA). In kind it is cell-based. As to conditions: for EC50 / Human Pan T cells EC2x (nM, IL-2): IL-2, anti-CD3/CD28 stimulation, 48 hours; for Human Pan T cells EC2x (nM, IL-2): concentration giving 200% response (2 folds) over DMSO control; for Max fold change: IL-2 response over DMSO control, human pan T cells. The source says: This example is an assay method that can be used to determine compound effects on IL2 & IFN-γ release using pan T cells and ELISA assay format.
Procedures for Pan T isolation and Reagent preparation (Day 0): • 1. Cell Growth Medium: • RPMI1640: ATCC, Cat# 30-2001 • 10% FBS: Gibco, Cat# 10099141 • 1% Pen-Strep: Gibco, Cat # 15140122 • 1% Non-essential amino: Gibco, Cat #11140050 • Beta- Mercaptoethanol: Gibco, Cat#21985023 • 2. Pan T isolation buffer preparation: • Prepare a solution containing phosphate-buffered saline (PBS), pH 7.2, 0.5% bovine serum albumin (BSA), and 2 mM EDTA by diluting MACS® BSA Stock Solution (# 130-091-376) 20 times with autoMACS® Rinsing Solution. Keep buffer at 4° C. Degas buffer before use, as air bubbles could block the column.
• 3. Thawing of frozen PBMC • 1) Pre-heat medium at 37° C. water bath. • 2) Rapidly thaw cells in 37° C. water bath. • 3) Add the pre-warmed medium into 15 mL tube. Transfer cells to the tube. • 4) 300 × g centrifuge for 8 min. (centrifuge increase 0, decrease 0). • 5) Wash the PBMC using Rinsing buffer. • 6) Centrifuge PBMC at 300 × g for 8 min, wash it twice (centrifuge increase 9, decrease 1). • 7) Resuspend the cells with Pan T cells isolation buffer and count cells number. • 4. Pan T cells isolation: • Cell staining with microbead cocktail • 1) Prepare cells and determine cell number. Filter cells by 70 µm cell strainer. • 2) Resuspend cell pellet in 40 µL of buffer per 10^7 total cells. • 3) Add 10 µL of Pan T Cell Biotin-Antibody Cocktail per 10^7 total cells. • 4) Mix well and incubate for 10 minutes in the refrigerator (ice). • 5) Add 30 µL of buffer per 10^7 total cells. • 6) Add 20 µL of Pan T Cell MicroBead Cocktail per 10^7 total cells. • 7) Mix well and incubate for 15 minutes in the refrigerator (ice). • 8) Proceed to subsequent magnetic cell separation.
Subsequent manual cell separation: • 1) Place LS Column in the magnetic field of a suitable MACS Separator. For details refer to the respective MACS Column data sheet. • 2) Prepare column by rinsing with 3 mL of buffer. • 3) Apply cell suspension onto the column. Collect flow-through, which represents the enriched T cells. • 4) Wash column with 5 mL of buffer. Collect unlabeled cells that pass through, representing the enriched T cells.
Reminder: Always wait until the column reservoir is empty before proceeding to the next step. • 5. Pan T cell FACS: • 1) Take out 50 µL of PBMC and Pan T cells to FACS tubes respectively. • 2) Incubate cells with anti-human CD3/CD4/CD8 antibodies (1 µL/1 µL/1 µL /tube) for 20 min at 4° C. For unstained control, incubate cells with FACS staining buffer. • 3) Wash 2 times with cold staining buffer (PBS with 0.2%BSA and 1 mM EDTA). • 4) Run FACS. Gate CD3^+, CD3^+CD4^+, and CD3^+CD8^+ population for % analysis. • 5) If the purity of Pan T cells is higher than 90%, dilute cell suspension to 1 million cells/mL with the appropriate volume of Cell Culture Media. • 6) Dispense the cell suspension into a sterile, disposable reservoir for future use.
Procedures for preparation of compounds and anti-human CD3/CD28 (Day 0): • 1. Compound preparation • Compound serial dilution (source plate 1000×) • Compounds are solubilized in 100% DMSO to a concentration of 10 mM. Then they were 3-fold serially diluted to 8-point doses. • 4× Compound dose preparation (inter plate: Corning-3599): • Prepare 4× compound solution in culture medium. Pipet up and down. For the ZPE control, prepare 0.4% DMSO (4×) in culture medium. For the HPE control, prepare 0.4 µM of RGT003-026 (4×) in culture medium. • 2. Anti-human CD3 (stock conc. 6.76 mg/ml): stored at 4° C. • 1) Dilute anti-human CD3 with PBS to final conc. of 0.5 µg/mL. • 2) Add 50 µL /well of CD3 to each well, except for the positive and negative control wells. […] Rinse each well twice with 200 µL of sterile PBS each time. • 3. […]
(In an ELISA, binding on a coated surface is turned into a signal by an enzyme label.)

The next experiment concerns the target HPK1 (Homo sapiens (Human), UniProt Q92918). The experiment can be described thus: HPK1 biochemical assay (ADP-GLO Kinase Assay). As to conditions: ADP-GLO, 10 µM ATP, MBP substrate; read-out: HPK1 IC50. From the text: This example used the ADP-GLO™ Kinase Assay to measure the effect of potential HPK1 inhibitor compounds on HPK1 kinase activity.
The ADP-GLO™ Kinase Assay (Promega Corp., Madison, WI) measures ADP formed from a kinase reaction. According to the manufacture, the ADP formed in a kinase assay is first converted into ATP, which is then used to generate light in a luciferase reaction. The luminescence generated correlates with kinase activity. An exemplary experimental setting is described below, though minor adjustments can be made in individual assays.
Serial 3-fold dilution of compoounds from 10 µM (top concentration) to 0.508 nM (lowest concentration). Positive control is 10 µM Reference + enzyme + substrate. Negative control is 1% DMSO + enzyme + substrate.
40 mM Tris pH7.5; 20 mM MgC12, 0.1 mg/ml BSA, 50 µM DTT Buffer stock
• 1) The compounds were diluted to 1 mM, by mixing 10 µL of 10 mM respective compound stocks with 90 µL of DMSO. • 2) The compounds were then diluted 3-fold for 10 doses (5 µL to 10 µL dilution) by BRAVO. The top compound conc. was 1 mM (100×), DMSO Conc. was 100%. • 3) Transfer 100 nL of each diluted compound sample to 384-well plate (Corning-4512) by ECHO. • 4) Centrifuge the plate at 1,500 rpm for 1 minute.
20 µM ATP, 0.2 µg/µL MBP in Kinase Buffer (final concentration: 10 µM ATP, 0.1 µg/µL MBP)
• 5. Preparation of 2× HPK1 working solution with assay buffer. HPK1 final concentration was 0.6 ng/µL. […] Add 5 µL/well of 2× HPK1 working solution, Centrifuge at 1,500 rpm for 1 minute. • 7. Add 5 µL/well of 2× ATP-Substrate, Centrifuge at 1,500 rpm for 1 minute. • 8. Incubate at 25° C. for 1 hour (or 6 hours for compounds with high potency). • 9. Add 5 µL/well ADP-GLO™ Reagent to stop the kinase reaction and deplete the unconsumed ATP. Centrifuge at 1,500 rpm for 1 minute. Incubate at 25° C. for 40 min. • 10. Add 10 µL of Kinase Detection Reagent to convert ADP to ATP. Centrifuge at 1,500 rpm for 1 minute. Incubate at 25° C. for 40 min. • 11. Record luminescence signal on an Envision plate reader (384-CTG).
The percent (%) inhibition at each concentration of compound is calculated based on and relative to the signal in the High and Low control wells contained within each assay plate. […] The concentrations and % inhibition values for tested compounds were plotted and the concentration of compound required for 50% inhibition (IC50) was determined with a Three-parameter logistic dose response equation. The endpoint value (IC50) for the reference peptide/compound was evaluated in each experiment as a quality control measure. If the endpoint value was within 3-fold of the expected value, then the experiment was deemed acceptable.
For orientation: ADP-Glo turns the ADP formed in a reaction into a luminescent signal.

Chain of HPK1 (Q92918 whole entry): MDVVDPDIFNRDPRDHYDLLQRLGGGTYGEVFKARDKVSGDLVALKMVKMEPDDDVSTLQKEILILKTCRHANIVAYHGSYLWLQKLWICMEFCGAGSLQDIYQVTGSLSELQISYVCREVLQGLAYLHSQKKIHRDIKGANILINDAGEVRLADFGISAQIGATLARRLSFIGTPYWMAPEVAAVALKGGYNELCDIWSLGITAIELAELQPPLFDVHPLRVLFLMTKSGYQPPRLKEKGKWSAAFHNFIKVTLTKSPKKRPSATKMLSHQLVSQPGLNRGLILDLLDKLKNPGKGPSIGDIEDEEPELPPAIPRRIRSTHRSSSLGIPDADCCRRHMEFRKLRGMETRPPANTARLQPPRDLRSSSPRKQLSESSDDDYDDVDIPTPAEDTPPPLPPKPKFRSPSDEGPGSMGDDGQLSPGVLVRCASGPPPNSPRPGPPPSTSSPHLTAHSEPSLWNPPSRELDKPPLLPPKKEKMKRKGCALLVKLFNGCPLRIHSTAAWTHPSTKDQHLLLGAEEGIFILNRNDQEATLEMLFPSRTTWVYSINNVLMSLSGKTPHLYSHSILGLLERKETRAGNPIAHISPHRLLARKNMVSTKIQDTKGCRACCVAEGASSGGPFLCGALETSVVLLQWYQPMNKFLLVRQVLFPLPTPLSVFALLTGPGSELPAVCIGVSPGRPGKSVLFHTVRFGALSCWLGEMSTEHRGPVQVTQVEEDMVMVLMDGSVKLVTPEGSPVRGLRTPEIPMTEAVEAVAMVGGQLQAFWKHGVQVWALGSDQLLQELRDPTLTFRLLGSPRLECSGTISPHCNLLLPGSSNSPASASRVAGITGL

For the molecule `COc1cc2c(cc1Nc1ncc(Cl)c(N3C[C@@](C)(CC(=O)O)c4ccccc43)n1)CN(C)CC2` (single isomer, unassigned) [Example 3, (S)-2-(1-(5-chloro-2-((6-methoxy-2-methyl-1,2,3,4-tetrahydroisoquinolin-7-yl)amino)pyrimidin-4-yl)-3-methylindolin-3-yl)acetic acid or (R)-2-(1-(5-chloro-2-((6-methoxy-2-methyl-1,2,3,4-tetrahydroisoquinolin-7-yl)amino)pyrimidin-4-yl)-3-methylindolin-3-yl)acetic acid], in the experiment with Human Pan T cells, the EC50 is 911 nM; the “Human Pan T cells EC2x (nM, IL-2)” value is recorded as > 5760 (N = 2) nM; the Max fold change was 1.96 (N = 2). The IC50 at HPK1 stood at 24 nM.

`COc1cc2c(cc1Nc1ncc(Cl)c(N3CC(C)(CC(=O)O)c4cc(F)ccc43)n1)CN(C)CC2` (centres unmarked) [Compound 9, reference compound]: the EC50 in the experiment with Human Pan T cells (Homo sapiens, T-cell) was 68 nM. In addition, in the experiment with Human Pan T cells, the “Human Pan T cells EC2x (nM, IL-2)” value is reported as 62 (N = 2) nM and the Max fold change is on record as 3.24 (N = 2). Besides, the IC50 at HPK1 came to 1.1 nM.
